Tested on: HEK293FT cells transfected with TF library
Test: Screening of TF condensates based on fluorescent puncta
Format: cell-based
Details: Figure 1B numerical data; TF library screen, one value per transcriptional factor
Experimental: TF plasmids were automatically added to black-walled 384-well plates at 80 ng per well to reach a final concentration of 1.6 μg/ml. Polyethylenimine (PEI, Sigma) was then added to the plasmid-loaded plates at 240 ng per well (4.8 μg/ml). Subsequently, HEK293FT cells were seeded into the plate at 2000 cells per well. After 60 h, cells were cultured in medium with or without glucose for 12 h, and then fixed with 4% paraformaldehyde (PFA) at room temperature for 30 min. After three washes with PBS, fixed cells were permeabilized with 0.05% Triton X-100 for 15 min. Thereafter, cells were blocked with 5% BSA for 1 h, and then incubated overnight with anti-Flag (Sigma F3165, 1:200) and anti-GAL4 (Abbkine ABP57232, 1:200) primary antibodies at 4 °C. The cells were then gently washed with PBS, followed by being incubated with Alexa Fluor Plus 488 goat anti-mouse IgG secondary antibody (Thermo A32723, 1:400) or Alexa Fluor Plus 488 goat anti-rabbit IgG secondary antibody (Thermo A32731, 1:400) for 1 h. The plates were kept at 4 °C in the dark before being analyzed using an Opera System (Perkin Elmer). Fifty random fields per well were scanned and analyzed using the Columbus Plus Image Data Storage and Analysis System (Perkin Elmer).

Row | Substance | Z score of condensed fraction
1 | ANKRD1 | 1.047
2 | AP-2A | 0.4428
3 | ARNT2 | -0.9281
4 | ARX | -0.4034
5 | ATF4/CREB2 | 2.625
6 | BACH2 | 2.257
7 | BHLHE22 | 1.286
8 | BIRC3 | -0.652
9 | BMAL1 | -0.6251
10 | BTEB1 | -0.01224
11 | CFOS | 0.6801
12 | CHD6 | -1.082
13 | COPEB | -0.3064
14 | COPS5 | -0.1538
15 | CREB1 | -0.9562
16 | CSDA | -0.8745
17 | CTBP2 | 1.5
18 | DLX3 | -0.9246
19 | DLX5 | -0.5192
20 | DLX6 | -0.9336
21 | DMBX1 | -0.1986
22 | DMRTB1 | 1.668

Row | Substance | Z score of condensed fraction
23 | DOUBLESEX | -0.4806
24 | DYRK1B | -0.5775
25 | EED | -1.11
26 | EGR2 | -0.8859
27 | EGR3 | 0.2174
28 | EHF | -0.3879
29 | ELF1 | 3.027
30 | ELK3 | 0.04681
31 | ELK4 | 0.361
32 | EPAS1 | -0.6882
33 | ETS2 | -0.1278
34 | ETV6 | -0.2068
35 | FEV | -0.8157
36 | FIGLA | 0.3984
37 | GATA3 | -0.2833
38 | GBX1 | 1.521
39 | GFI1 | -0.2635
40 | GFI1B | -0.772
41 | GLI2 | -0.605
42 | GSC2 | -0.9708
43 | HDGF | 2.149
44 | HIVEP2 | -0.8032

Row | Substance | Z score of condensed fraction
45 | HMGN3 | 1.967
46 | HOX11L2/RNX | 0.134
47 | HOXA1 | -0.1685
48 | HOXA3 | -0.6169
49 | HOXA5 | -1.091
50 | HOXA6 | 1.681
51 | HOXA9 | -1.01
52 | HOXA10 | -0.1146
53 | HOXA11 | -0.6499
54 | HOXB4 | -1.061
55 | HOXB5 | -0.4916
56 | HOXB7 | 0.6165
57 | HOXB8 | -0.6846
58 | HOXB13 | -0.5432
59 | HOXC4 | 0.8193
60 | HOXC5 | -0.4333
61 | HOXC9 | -0.7207
62 | HOXC10 | -0.2628
63 | HOXC11 | -0.01391
64 | HOXD1 | -0.8333
65 | HOXD4 | -0.2008
66 | HOXD10 | -0.4162

Row | Substance | Z score of condensed fraction
67 | HOXD11 | -0.6245
68 | HOXD12 | 0.1237
69 | KDM5C | 0.549
70 | KDM5D | 0.3583
71 | KLF7 | 1.062
72 | KLF9 | -0.8423
73 | KLF13 | -0.9454
74 | KLF15 | 0.8588
75 | KLF16 | -0.8935
76 | LHX6 | -0.2026
77 | LHX8 | -0.6943
78 | LYL1 | -0.8803
79 | MAD2 | -0.8457
80 | MAFG | 0.65
81 | MAX | 1.089
82 | MECOM | -0.8438
83 | MEOX1 | -0.5142
84 | MIXL1 | -0.6564
85 | MSX1 | -0.7505
86 | MTF1 | 0.05882
